Measured values: patent US9133207B2, “Tetrandrine derivatives with substituted 5-carbon, preparation method and use thereof” (Hangzhou Bensheng Pharmaceutical Co., Ltd., priority 2011, dated 2015)
≈ marks a conversion by molar mass, not a printed value.

Tests used:
PC-3 (prostate cancer) = assay: Solid tumor cell growth inhibition, MTT, 72 h (Example 7); format: cell-based, human; details: Homo sapiens; 72 h, MTT, PC-3
Summary of the method: (§1)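 Each line is plated at 4000 cells per well in high-glucose DMEM supplemented with 10% FBS. After 24 h settling, derivatives at several concentrations are mixed in and cultured 72 h; MTT then gives viable cells, with untreated wells set to 100%.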

[1] = system: PANC-1 (pancreatic cancer); assay: as above; format: cell-based, human
Summary of the method: as §1

[2] = system: Hep-2 (laryngeal carcinoma); assay: as above; format: cell-based, human; details: Homo sapiens; 72 h, MTT, Hep 2
Summary of the method: as §1

MG63 (osteosarcoma) = assay: as above; format: cell-based, human; details: Homo sapiens; 72 h, MTT, MG-63
Summary of the method: as §1

[3] = system: CaES-17 (esophageal cancer cell); assay: as above; format: cell-based, human; details: Homo sapiens, CaEs17; 72 h, MTT, CAES-17
Summary of the method: as §1

[4] = system: H9 (acute lymphoblastic leukemia, ALL); assay: Leukemia cell growth inhibition, MTT, 72 h (Example 5); format: cell-based, human; details: Homo sapiens; 72 h, MTT
Summary of the method: (§2)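 Seed 6000 leukemia cells per well in 1640 medium containing 10% FBS. Add test compounds at different concentrations, mix, incubate 72 hours at 37° C in 5% CO2. Determine viable cells by MTT.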

[5] = system: Kasumi-1 (acute myeloid leukemia M2 type, AML-M2); assay: as above; format: cell-based, human; details: Homo sapiens, Kasumi 1
Summary of the method: as §2

[6] = system: K562/adr (drug-resistant, chronic myeloid leukemia, CML); assay: as above; format: cell-based, human; details: Homo sapiens, K562/Adr; 72 h, MTT
Summary of the method: as §2

[7] = system: Jurkat (acute lymphoblastic leukemia, ALL); assay: as above; format: cell-based, human
Summary of the method: as §2

[8] = system: NB4 (acute promyelocytic leukemia, AML); assay: as above; format: cell-based, human; details: Homo sapiens; 72 h, MTT
Summary of the method: as §2

[9] = Experiment 8-2: body weight of nude mice, preliminary toxicity
Procedure: (§3) Animal: BALB/c nude mice, 8 weeks, female, purchased from Shanghai Laboratory Animal Center of Chinese Academy of Sciences, China.
(§4) The mice are administered from the third day after the inoculation. Each mouse is intragastrically administered in 0.4 ml each time and 3 times a day, at 8:00, 14:00 and 20:00, with 6-hour intervals. The administrations are successive for 10 days. The day before administration is deemed as Day 0 and the body weight and tumor size are determined every 5 days to produce a dynamic plot on body weight and tumor growth. On Day 29, the mice are dissected and the tumors are taken out and weighted. The tumor inhibition rate (%) is calculated after the effect of the medicament based on the tumor inhibition rate of the control group being zero.
(§5) The values determined are presented as mean±standard error (M±SD).

[10] = system: RPMI8226 (multiple myeloma); assay: Multiple myeloma cell growth inhibition, MTT, 72 h (Example 6); format: cell-based, human; details: Homo sapiens, RPMI-8226; 72 h, MTT, RPMI8226
Summary of the method: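 Viability was read by MTT after 72 h of compound exposure at 37 °C, 5% CO2. Each well held 6000 RPMI8226 cells in 1640 medium containing 10% fetal bovine serum, with derivatives added at various concentrations.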

[11] = system: RKO (human colon adenocarcinoma cell); assay: Solid tumor cell growth inhibition, MTT, 72 h (Example 7); format: cell-based; details: Homo sapiens; 72 h, MTT, RKO
Summary of the method: as §1

[12] = system: Huh7 (human liver cancer cell); assay: as above; format: cell-based
Summary of the method: as §1

[13] = system: CNE (nasopharyngeal carcinoma cell); assay: as above; format: cell-based; details: Homo sapiens
Summary of the method: as §1

A549 (human lung cancer) = assay: as above; format: cell-based; details: Homo sapiens; 72 h, MTT, A549
Summary of the method: as §1

[14] = system: U87 MG (malignant glioma cell); assay: as above; format: cell-based; details: Homo sapiens, U-87 MG
Summary of the method: as §1

[15] = system: Becap37 (human breast cancer cell); assay: as above; format: cell-based
Summary of the method: as §1

[16] = system: MGC 803 (human gastric cancer cell); assay: as above; format: cell-based; details: Homo sapiens
Summary of the method: as §1

[17] = system: Hela (human cervical cancer cell); assay: as above; format: cell-based; details: Homo sapiens; 72 h, MTT, Hela
Summary of the method: as §1

[18] = system: SK-OV-3 (ovarian cancer cell); assay: as above; format: cell-based; details: Homo sapiens
Summary of the method: as §1

[19] = mouse, in vivo, 50 mg/kg
Procedure: as §3, §4, §5

[20] = system: human non-small cell lung cancer cell line A549 transplanted tumor; assay: Experiment 8-2: transplanted tumor of human lung cancer in nude mice; format: in vivo, BALB/c nude mice
Text: Cell lines: human non-small cell lung cancer cell line A549, from China Center for Type Culture Collection (CCTCC);
The administrations are successive for 10 days.

[21] = Homo sapiens, 72 h, MTT, PANC-1
[22] = Homo sapiens, Jurkat, 72 h, MTT
[23] = Homo sapiens, 72 h, MTT, Becap-37

## COc1ccc2cc1Oc1ccc(cc1)C[C@H]1c3cc(c(OC)cc3CCN1C)Oc1c(OC)c(OC)c(CN3CCC(N(C)C)CC3)c3c1[C@H](C2)N(C)CC3 [BS-TE-354]
PC-3 (prostate cancer)
  IC50: 1.9 µg/mL (≈ 2.49 µM)
  IC90: 2.5 µg/mL (≈ 3.28 µM)
[1]; [21]
  IC50: 1.25 µg/mL (≈ 1.64 µM)
  IC90: 6.31 µg/mL (≈ 8.27 µM)
[1]; compared with tetrandrine
  anti-PANC-1 activity increase over tetrandrine: 2 fold
[2]
  IC50: 2.05 µg/mL (≈ 2.69 µM)
  IC90: 6.19 µg/mL (≈ 8.11 µM)
MG63 (osteosarcoma)
  IC50: 0.68 µg/mL (≈ 0.891 µM)
  IC90: 0.9 µg/mL (≈ 1.18 µM)
[3]
  IC50: 0.91 µg/mL (≈ 1.19 µM)
  IC90: 4.89 µg/mL (≈ 6.41 µM)
[4]
  IC50: 0.78 µg/mL (≈ 1.02 µM)
  IC90: 1.25 µg/mL (≈ 1.64 µM)
[5]
  IC50: 0.37 µg/mL (≈ 0.485 µM)
  IC90: 1.97 µg/mL (≈ 2.58 µM)
[6]
  IC50: 0.99 µg/mL (≈ 1.3 µM)
  IC90: 2.65 µg/mL (≈ 3.47 µM)
[7]; [22]
  IC50: 0.5 µg/mL (≈ 0.655 µM)
  IC90: 2.23 µg/mL (≈ 2.92 µM)
[7]; compared with tetrandrine
  anti-Jurkat activity increase over tetrandrine: ~4 fold
[8]
  IC50: 0.4 µg/mL (≈ 0.524 µM)
  IC90: 1 µg/mL (≈ 1.31 µM)
[9]; 50 mg/kg
  weight loss as compared with the weight in the control group (FIG. 6): relatively remarkable
[9]; 50 mg/kg intragastric, 3 times a day, 10 days, final body weight, M±SD
  Weight (g) Final: 16.08 ± 1.00 g
[9]; nude mice body weight before administration, M±SD
  Weight (g) Initial: 22.25 ± 0.29 g
[10]
  IC50: 0.08 µg/mL (≈ 0.105 µM)
  IC90: 1.58 µg/mL (≈ 2.07 µM)
[11]
  IC50: 0.25 µg/mL (≈ 0.328 µM)
  IC90: 0.51 µg/mL (≈ 0.668 µM)
[12]; Homo sapiens, 72 h, MTT, Huh-7
  IC50: 0.65 µg/mL (≈ 0.852 µM)
  IC90: 0.98 µg/mL (≈ 1.28 µM)
[12]; compared with tetrandrine
  anti-Huh7 activity increase over tetrandrine: ~8 fold
[13]
  IC50: 0.54 µg/mL (≈ 0.708 µM)
  IC90: 1.62 µg/mL (≈ 2.12 µM)
A549 (human lung cancer)
  IC50: 1.8 µg/mL (≈ 2.36 µM)
  IC90: 9.8 µg/mL (≈ 12.8 µM)
[14]
  IC50: 0.31 µg/mL (≈ 0.406 µM)
  IC90: 1.44 µg/mL (≈ 1.89 µM)
[15]; [23]
  IC50: 0.4 µg/mL (≈ 0.524 µM)
  IC90: 2.4 µg/mL (≈ 3.15 µM)
[15]; compared with tetrandrine
  anti-Becap37 activity increase over tetrandrine: 17 fold
[16]
  IC50: 0.83 µg/mL (≈ 1.09 µM)
  IC90: 3.93 µg/mL (≈ 5.15 µM)
[17]
  IC50: 1.07 µg/mL (≈ 1.4 µM)
  IC90: 2.81 µg/mL (≈ 3.68 µM)
[18]
  IC50: 1.4 µg/mL (≈ 1.83 µM)
  IC90: > 16 µg/mL
[19]
  toxic and side effect under such a dosage: has caused some toxic and side effect
[20]; 50 mg/kg
  effect on transplanted tumor of human lung cancer in nude mice: exhibits inhibiting effect
[20]; 50 mg/kg intragastric, 3 times a day, 10 days, Day 29, M±SD
  Mass of tumor: 423.25 ± 364.28 mg
[20]; 50 mg/kg intragastric, 3 times a day, 10 days, Day 29, control = zero
  Tumor Inhibition rate (%): 43.60%
